Assay results as given in patent US5945406A, “Therapeutic compounds with pyrimidine base” (Oxford Glycosciences (UK) Ltd., priority 1995, dated 1999).

Tests used:
nude mice [1] = conditions: mouse, in vivo, ip
Description: The toxicity of Compound 1 (as described in Example 1) relative to 5-FU was determined in nude mice. Clinical grade 5-FU was used to provide a point of comparison with other toxicity studies in the literature. Animals were injected six times ip, in groups of 5, every 48 hours, with various doses of 5-FU or Compound 1.

[2] = tested on: human HepG2 flank tumours; assay: Efficacy in vivo: antitumour activity against subcutaneous human HepG2 flank tumours in nude mice (Example 20); design: species or system human tumour in nude mice; conditions: for Average tumour size (at sacrifice): control 10.4; for Average tumour size (at sacrifice) / Number of mice surviving after tumour innoculation, day 17 / Number of mice surviving after tumour innoculation, day 25 / Number of mice surviving after tumour innoculation, day 30 / appearance of treated animals / toxic side effects to the animals / rate of disease progression in treated animals / survival time of treated mice over untreated animals: 1300 mg/kg; for Number of mice surviving after tumour innoculation, day 0: day 0 after tumour inoculation; for Number of mice surviving after tumour innoculation, day 17: day 17 after tumour inoculation; for Number of mice surviving after tumour innoculation, day 25: day 25 after tumour inoculation; for Number of mice surviving after tumour innoculation, day 30: day 30 after tumour inoculation
Description: Nude mice were inoculated with subcutaneous human HepG2 flank tumours to determine the antitumour activity of Compound 1 in vivo. After allowing the tumours to develop for the first seven days, we attempted to prevent tumour progression by seven ip treatments every 48 hours at doses of 1300 mg/kg.

nude mice [3] = conditions: single bolus toxicity; NCI data base; cited from earlier work
[4] = seven ip treatments every 48 hours

Compound | MAD (maximal achievable dose) (nude mice [1]) [mg/kg] | Average tumour size (at sacrifice) [2, 4] | Number of mice surviving after tumour innoculation, day 0 [2] [mice] | Number of mice surviving after tumour innoculation, day 17 [2, 4] [mice] | Number of mice surviving after tumour innoculation, day 25 [2, 4] [mice] | Number of mice surviving after tumour innoculation, day 30 [2, 4] [mice] | appearance of treated animals ([2]; in vivo, ip) | toxic side effects to the animals ([2]; in vivo, ip) | rate of disease progression in treated animals [2, 4] | survival time of treated mice over untreated animals [2, 4] | LD10 (nude mice [3]) [mg/kg] | LD50 (nude mice [3]) [mg/kg] | appearance of treated animals [2, 4] | toxic side effects to the animals [2, 4]
1-β-D-Galactopyranosyl-5-fluorouracil and 1-α-D-Galactopyranosyl-5-fluorouracil [Compound 1] | 1300 | 9.4 | 5 | 3 | 2 | 1 | very healthy appearance | without causing any toxic side effects | significantly slowed the rate by which the disease progressed | increased survival time | – | – | – | –
O=c1[nH]cc(F)c(=O)[nH]1 [Compound 5-FU, 5-Fluorouracil, reference compound] | – | 10.2 | 5 | 3 | 2 | 0 | – | – | – | – | 165 | 360 | – | –
CC(=O)N[C@@H]1[C@@H](O)[C@@H](O)[C@@H](CO)O[C@H]1n1cc(F)c(=O)[nH]c1=O [Compound 10, 1-(β-D-2-Deoxy-2-N-acetylgalactopyranosyl)-5-fluorouracil] | – | 9 | 5 | 3 | 2 | 1 | – | – | significantly slowed the rate by which the disease progressed | increased survival time | – | – | very healthy appearance | without causing any toxic side effects
1-(β-L-2-Arabinopyranosyl)-5-fluorouracil and 1-(α-L-2-Arabinopyranosyl)-5-fluorouracil [Compound 6] | – | 6.2 | 5 | 4 | 2 | 2 | – | without causing any toxic side effects | significantly slowed the rate by which the disease progressed | increased survival time | – | – | very healthy appearance | –
1-β-L-Galactopyranosyl-5-fluorouracil and 1 -α-L-Galactopyranosyl-5-fluorouracil [Compound 2] | – | 5.6 | 5 | 5 | 3 | 2 | very healthy appearance | without causing any toxic side effects | significantly slowed the rate by which the disease progressed | increased survival time | – | – | – | –
